Assay results: the NIST ThermoML archive (doi:10.1021/je501178z)
“And” between values parts separate entries of the source, which are not always exact repeats. Identical values can stand only once.

Assay: mn = molality of the nth substance listed, in mol/kg
Details: 101.3 kPa, Liquid; for viscosity: Capillary tube (Ostwald / Ubbelohde) method; for mass density: Vibrating tube method

N=C(N)NCCC[C@H](N)C(=O)O [L-arginine] + O
Details | mass density, 293.15 K [kg/m3] | mass density, 303.15 K [kg/m3] | mass density, 313.15 K [kg/m3] | mass density, 323.15 K [kg/m3] | viscosity, 293.15 K [mPa·s] | viscosity, 303.15 K [mPa·s] | viscosity, 313.15 K [mPa·s] | viscosity, 323.15 K [mPa·s]
m1 = 0.1 | 1003.17 | 1000.55 | 997.05 | 992.84 | 1.054 | 0.838 | 0.685 | 0.572
m1 = 0.2 | 1008 | 1005.3 | 1001.75 | 997.5 | 1.108 | 0.879 | 0.717 | 0.598
m1 = 0.3001 | 1012.68 | 1009.91 | 1006.31 | 1002.03 | 1.167 | 0.923 | 0.751 | 0.625
m1 = 0.4 | 1017.21 | 1014.38 | 1010.73 | 1006.41 | 1.23 | 0.97 | 0.788 | 0.654
m1 = 0.5 | 1021.6 | 1018.71 | 1015.01 | 1010.67 | 1.298 | 1.021 | 0.826 | 0.684
m1 = 0.6 | 1025.86 | 1022.9 | 1019.15 | 1014.8 | 1.362 | 1.069 | 0.864 | 0.714
m1 = 0.7 | 1030 | 1026.97 | 1023.18 | 1018.82 | 1.435 | 1.124 | 0.905 | 0.747

CC(C)[C@H](N)C(=O)O [L-valine] + O
Details | mass density, m1 = 0.1 [kg/m3] | mass density, m1 = 0.2001 [kg/m3] | mass density, m1 = 0.3001 [kg/m3] | mass density, m1 = 0.4002 [kg/m3] | mass density, m1 = 0.5 [kg/m3] | viscosity, m1 = 0.1 [mPa·s] | viscosity, m1 = 0.2001 [mPa·s] | viscosity, m1 = 0.3001 [mPa·s] | viscosity, m1 = 0.4002 [mPa·s] | viscosity, m1 = 0.5 [mPa·s]
293.15 K | 1000.88 | 1003.51 | 1006.08 | 1008.6 | 1011.05 | 1.044 | 1.089 | 1.135 | 1.184 | 1.233
303.15 K | 998.29 | 1000.88 | 1003.41 | 1005.89 | 1008.31 | 0.829 | 0.862 | 0.896 | 0.929 | 0.965
313.15 K | 994.81 | 997.37 | 999.88 | 1002.33 | 1004.72 | 0.678 | 0.702 | 0.728 | 0.753 | 0.779
323.15 K | 990.6 | 993.11 | 995.57 | 997.98 | 1000.34 | 0.565 | 0.585 | 0.604 | 0.624 | 0.644

NCC(=O)O [2-aminoacetic acid] + O
Details | mass density, 293.15 K [kg/m3] | mass density, 303.15 K [kg/m3] | mass density, 313.15 K [kg/m3] | mass density, 323.15 K [kg/m3] | viscosity, 293.15 K [mPa·s] | viscosity, 303.15 K [mPa·s] | viscosity, 313.15 K [mPa·s] | viscosity, 323.15 K [mPa·s]
m1 = 0.1002 | 1001.41 | 998.8 | – | 991.11 | 1.015 | 0.809 | 0.663 | 0.555
m1 = 0.2 | 1004.57 | 1001.91 | – | 994.14 | 1.029 | 0.82 | 0.672 | 0.563
m1 = 0.3002 | 1007.7 | 1004.98 | 1001.42 | 997.14 | 1.042 | 0.831 | 0.681 | 0.571
m1 = 0.4001 | 1010.77 | 1008 | 1004.4 | 1000.09 | 1.057 | 0.842 | 0.691 | 0.579
m1 = 0.5001 | 1013.8 | 1010.98 | 1007.35 | 1003.01 | 1.072 | 0.855 | 0.701 | 0.587
m1 = 0.6 | 1016.78 | 1013.91 | 1010.25 | 1005.88 | 1.086 | 0.867 | 0.711 | 0.596
m1 = 0.6998 | 1019.71 | 1016.8 | 1013.11 | 1008.72 | 1.101 | 0.878 | 0.721 | 0.605

C[C@@H](O)[C@H](N)C(=O)O [L-threonine] + O
Details | mass density, 293.15 K [kg/m3] | mass density, 303.15 K [kg/m3] | mass density, 313.15 K [kg/m3] | mass density, 323.15 K [kg/m3] | viscosity, 293.15 K [mPa·s] | viscosity, 303.15 K [mPa·s] | viscosity, 313.15 K [mPa·s] | viscosity, 323.15 K [mPa·s]
m1 = 0.0999 | 1002.41 | 999.81 | 996.32 | 992.11 | 1.035 | 0.823 | 0.673 | 0.562
m1 = 0.1999 | 1006.56 | 1003.9 | 1000.37 | 996.12 | 1.072 | 0.849 | 0.693 | 0.579
m1 = 0.2999 | 1010.63 | 1007.92 | 1004.34 | 1000.05 | 1.107 | 0.876 | 0.714 | 0.595
m1 = 0.4002 | 1014.64 | 1011.87 | 1008.25 | 1003.93 | 1.145 | 0.905 | 0.736 | 0.613
m1 = 0.5 | 1018.55 | 1015.73 | 1012.07 | 1007.71 | 1.184 | 0.934 | 0.759 | 0.63
m1 = 0.6 | 1022.4 | 1019.52 | 1015.83 | 1011.44 | 1.225 | 0.965 | 0.782 | 0.649
m1 = 0.6998 | 1026.16 | 1023.24 | 1019.52 | 1015.1 | 1.269 | 0.996 | 0.806 | 0.667

OC[C@@H](O)[C@@H](O)[C@H](O)[C@H](O)CO [D-mannitol] + O
Details | mass density, m1 = 0.2 [kg/m3] | mass density, m1 = 0.4 | mass density, m1 = 0.6 [kg/m3] | mass density, m1 = 0.8 [kg/m3] | mass density, m1 = 1 [kg/m3] | viscosity, m1 = 0.2 [mPa·s] | viscosity, m1 = 0.4 | viscosity, m1 = 0.6 [mPa·s] | viscosity, m1 = 0.8 [mPa·s] | viscosity, m1 = 1
293.15 K | 1010.52 | 1022.31 kg/m3 | 1033.43 | 1043.98 | 1054.13 | 1.104 | 1.221 mPa·s | 1.336 | 1.494 | 1.643 mPa·s
303.15 K | 1007.82 | 1019.39 kg/m3 | 1030.35 | 1040.88 | 1050.85 | 0.874 | 0.959 mPa·s | 1.044 | 1.151 | 1.262 mPa·s
313.15 K | 1004.26 | 1015.71 kg/m3 and 1015.74 kg/m3 | 1026.6 | 1036.92 | 1046.79 | 0.711 | 0.775 mPa·s and 0.776 mPa·s | 0.841 | 0.917 | 1.001 mPa·s and 1 mPa·s
323.15 K | 999.96 | 1011.28 kg/m3 | 1022.09 | 1032.28 | 1042.15 | 0.592 | 0.642 mPa·s | 0.693 | 0.752 | 0.814 mPa·s

C[C@H](N)C(=O)O [(S)-2-aminopropanoic acid] + O
Details | mass density, 293.15 K [kg/m3] | mass density, 303.15 K [kg/m3] | mass density, 313.15 K [kg/m3] | mass density, 323.15 K [kg/m3] | viscosity, 293.15 K [mPa·s] | viscosity, 303.15 K [mPa·s] | viscosity, 313.15 K [mPa·s] | viscosity, 323.15 K [mPa·s]
m1 = 0.1 | 1001.06 | 998.48 | 995.01 | 990.81 | 1.027 | 0.817 | 0.668 | 0.559
m1 = 0.2 | 1003.88 | 1001.27 | 997.76 | 993.55 | 1.053 | 0.837 | 0.684 | 0.571
m1 = 0.3 | 1006.66 | 1004.01 | 1000.47 | 996.24 | 1.079 | 0.856 | 0.7 | 0.584
m1 = 0.4002 | 1009.39 | 1006.71 | 1003.14 | 998.9 | 1.107 | 0.877 | 0.715 | 0.596
m1 = 0.5001 | 1012.06 | 1009.35 | 1005.76 | 1001.5 | 1.134 | 0.897 | 0.731 | 0.609
m1 = 0.6002 | 1014.69 | 1011.95 | 1008.33 | 1004.06 | 1.163 | 0.919 | 0.749 | 0.622
m1 = 0.6999 | 1017.27 | 1014.5 | 1010.86 | 1006.58 | 1.191 | 0.94 | 0.765 | 0.635
